Earlier results in US4981867A, “Treatment of tremor using compounds that depress calcium currents in thalamic and other central nervous system neurons” (The Board of Trustees of the Leland Stanford Junior …, priority 1989, dated 1991).

Test system: essential-familial tremor
Conditions: stated as known in background

Row | Compound | suppression of essential-familial tremor
1 | CCC1(c2ccccc2)C(=O)NCNC1=O [primidone] | can be suppressed
2 | CC(C)NCC(O)COc1cccc2ccccc12 (centres unmarked) [propranolol] | can be suppressed
